Patent publication US20230203081A1, “LINCOSAMIDE ANTIBIOTICS AND USES THEREOF” (President and Fellows of Harvard College, priority 2020, published 2023)
Values after ≈ are worked out from the molar mass of the structure shown. Where two headings read alike, the source gives them in different places.

Legend:
Assay type in all cases: cell-based
[1] = system: broad panel of different clinical isolates; experiment: microbe, parasite or virus in culture
In short: (§1)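 Inoculum for broth microdilution was 5×10^5 CFU/mL final, prepared from overnight 35° C blood-agar subcultures (separate handling for streptococcal and anaerobic strains); MICs read by CLSI broth microdilution or agar dilution.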

[2] = system: E. coli armA; experiment: microbe, parasite or virus in culture; conditions: Escherichia coli, E. coli armA
In short: as §1

[3] = system: S. pneumoniae MMX 3028 cErmB; experiment: MIC (broth microdilution or agar dilution, CLSI); conditions: Streptococcus pneumoniae, MMX3028CERMB, S. pneumoniae MMX 3028 cErmB
In short: as §1

[4] = system: S. aureus hVISA; experiment: MIC (broth microdilution or agar dilution, CLSI)
In short: as §1

[5] = system: S. pyogenes MMX 946; cErmB; experiment: MIC (broth microdilution or agar dilution, CLSI); conditions: Streptococcus pyogenes, S. pyogenes MMX 946, cErmB
In short: as §1

[6] = system: S. pneumoniae MMX 3031 cMefA; experiment: MIC (broth microdilution or agar dilution, CLSI); conditions: Streptococcus pneumoniae, MMX3031CMEFA, read-out: MIC
In short: as §1

[7] = system: E. coli LptD; experiment: MIC (broth microdilution or agar dilution, CLSI); conditions: Escherichia coli, read-out: MIC
In short: as §1

[8] = system: S. pneumoniae ATCC 6303; experiment: MIC (broth microdilution or agar dilution, CLSI)
In short: as §1

[9] = system: K. pneumoniae ATCC 10031; experiment: MIC (broth microdilution or agar dilution, CLSI); conditions: Klebsiella pneumoniae, ATCC10031, K. pneumoniae ATCC 10031; read-out: MIC
In short: as §1

[10] = system: E. coli ATCC 25922; experiment: MIC (broth microdilution or agar dilution, CLSI); conditions: Escherichia coli
In short: as §1

[11] = system: S. pneumoniae ATCC 49619; experiment: MIC (broth microdilution or agar dilution, CLSI); conditions: Streptococcus pneumoniae, read-out: MIC
In short: as §1

[12] = system: E. faecalis MMX 847; cErmB; experiment: MIC (broth microdilution or agar dilution, CLSI); conditions: Enterococcus faecalis, E. faecalis MMX 847, cErmB
In short: as §1

[13] = system: S. aureus ATCC 700699; experiment: MIC (broth microdilution or agar dilution, CLSI); conditions: Staphylococcus aureus
In short: as §1

[14] = system: S. aureus ATCC BAA-1707 (MRSA); experiment: MIC (broth microdilution or agar dilution, CLSI)
In short: as §1

[15] = system: S. aureus MMX 3035 cErmA; experiment: MIC (broth microdilution or agar dilution, CLSI); conditions: Staphylococcus aureus, MMX3035CERMA; S. aureus MMX 3035 cErmA; read-out: MIC
In short: as §1

[16] = system: K. oxytoca Clinical; experiment: MIC (broth microdilution or agar dilution, CLSI)
In short: as §1

[17] = system: E. faecalis ATCC 29212; experiment: MIC (broth microdilution or agar dilution, CLSI); conditions: Enterococcus faecalis, read-out: MIC
In short: as §1

[18] = system: S. pyogenes ATCC 19615; experiment: MIC (broth microdilution or agar dilution, CLSI); conditions: Streptococcus pyogenes, read-out: MIC
In short: as §1

`CCC[C@@H]1C[C@@H](C(=O)N[C@@H]([C@H]2O[C@H](SC)[C@H](O)[C@@H](O)[C@H]2O)[C@H](C)Cl)N(C)C1` [Clindamycin, clindamycin, reference compound] was tested, and the MIC ([1]; Staphylococcus aureus, S. aureus HAV#213, Clinical) was 0.125 µg/mL (≈ 0.294 µM), the MIC ([1]; Staphylococcus aureus, S. aureus HAV#214, Clinical) was 0.06 µg/mL (≈ 0.141 µM) and the MIC ([1]; Staphylococcus aureus, S. aureus HAV#215, Clinical) was 0.125 µg/mL (≈ 0.294 µM). It also gave an MIC ([1]; Staphylococcus aureus, S. aureus HAV#216, Clinical, cfr) of 128 µg/mL (≈ 301 µM), an MIC ([1]; Staphylococcus aureus, S. aureus HAV#217, cfr) greater than 128 µg/mL and an MIC ([1]; Staphylococcus aureus, VISA, S. aureus HAV#203, Clinical (VISA)) greater than 64 µg/mL. For the same molecule, the MIC ([1]; Staphylococcus epidermidis, S. epidermidis HAV# 275 Clinical, cfr) was greater than 128 µg/mL, the MIC ([1]; Staphylococcus epidermidis, S. epidermidis HAV# 276, cfr) was greater than 128 µg/mL and the MIC ([1]; Staphylococcus epidermidis, S. epidermidis HAV#277, Line R) was greater than 128 µg/mL. It also gave an MIC ([1]; Staphylococcus epidermidis, S. epidermidis HAV#278 Line R) greater than 128 µg/mL, an MIC ([1]; Staphylococcus epidermidis, S. epidermidis HAV#279, Line R) of 0.25 µg/mL (≈ 0.588 µM) and an MIC ([1]; Staphylococcus haemolyticus, S. haemolyticus 5052, Line R & Methicillin R) of 2 µg/mL (≈ 4.71 µM). For the same molecule, the MIC ([1]; Staphylococcus haemolyticus, S. haemolyticus HAV#252, Line R & Methicillin R) was 2 µg/mL (≈ 4.71 µM), the MIC ([1]; Streptococcus pneumoniae, ATCC700673, S. pneumoniae HAV#352, ATCC 700673, MDR) was greater than 64 µg/mL and the MIC ([1]; Streptococcus pneumoniae, ATCCBAA255, S. pneumoniae HAV#354, ATCC-BAA-255) was 0.25 µg/mL (≈ 0.588 µM). For the same molecule, the MIC ([1]; Streptococcus pneumoniae, ATCCBAA334, S. pneumoniae HAV#353, ATCC-BAA-334) was 0.25 µg/mL (≈ 0.588 µM), the MIC ([1]; Streptococcus pneumoniae, S. pneumoniae HAV#356, Clinical) was greater than 64 µg/mL and the MIC ([1]; Streptococcus pneumoniae, S. pneumoniae HAV#358, Clinical) was 0.25 µg/mL (≈ 0.588 µM). The MIC [2] was greater than 128 µg/mL, the MIC [3] was greater than 128 µg/mL and the MIC ([3]; read-out: MIC) was greater than 64 µg/mL. It also gave an MIC ([4]; S. aureus HAV#204, hVISA) greater than 128 µg/mL, an MIC ([4]; Staphylococcus aureus) greater than 128 µg/mL and an MIC [5] greater than 128 µg/mL. For the same molecule, the MIC ([5]; read-out: MIC) was greater than 64 µg/mL, the MIC ([6]; S. pneumoniae HAV#034, MMX 3031, cMefA) was less than 0.06 µg/mL and the MIC ([6]; S. pneumoniae MMX 3031 cMefA) was 0.06 µg/mL (≈ 0.141 µM). The MIC ([7]; E. coli HAV#040, LptD) was 4 µg/mL (≈ 9.41 µM), the MIC ([7]; E. coli LptD) was 2 µg/mL (≈ 4.71 µM) and the MIC ([8]; S. pneumoniae HAV#351, ATCC 6303) was 0.06 µg/mL (≈ 0.141 µM). It also gave an MIC ([8]; Streptococcus pneumoniae, ATCC6303, S. pneumoniae ATCC 6303, read-out: MIC) of 0.06 µg/mL (≈ 0.141 µM), an MIC [9] of 16 µg/mL (≈ 37.6 µM) and an MIC ([10]; ATCC25922, E. coli ATCC 25922) greater than 128 µg/mL. It also gave an MIC ([10]; ATCC25922, E. coli ATCC 25922, read-out: MIC) greater than 64 µg/mL, an MIC ([10]; ATCC25922, E. coli HAV#006, ATCC 25922) greater than 128 µg/mL and an MIC ([11]; ATCC49619, S. pneumoniae ATCC 49619) of no more than 0.06 µg/mL. For the same molecule, the MIC ([11]; ATCC49619, S. pneumoniae HAV#003, ATCC 49619) was 0.06 µg/mL (≈ 0.141 µM), the MIC [12] was greater than 128 µg/mL and the MIC ([12]; read-out: MIC) was greater than 64 µg/mL. The MIC ([13]; ATCC700699) was greater than 128 µg/mL, the MIC ([13]; ATCC 700699 / VISA) was greater than 128 µg/mL and the MIC ([14]; S. aureus HAV#016, ATCC BAA-1707, MRSA) was 0.125 µg/mL (≈ 0.294 µM). For the same molecule, the MIC ([14]; Staphylococcus aureus) was 0.125 µg/mL (≈ 0.294 µM), the MIC [15] was greater than 64 µg/mL and the MIC ([16]; K. oxytoca HAV#450, Clinical) was greater than 128 µg/mL. For the same molecule, the MIC ([16]; Klebsiella oxytoca) was greater than 128 µg/mL, the MIC ([17]; ATCC29212, E. faecalis ATCC 29212) was 16 µg/mL (≈ 37.6 µM) and the MIC ([17]; ATCC29212, E. faecalis HAV#005, ATCC 29212) was 16 µg/mL (≈ 37.6 µM). The MIC ([18]; ATCC19615, S. pyogenes ATCC 19615) was no more than 0.06 µg/mL and the MIC ([18]; ATCC19615, S. pyogenes HAV#004, ATCC 19615) was 0.06 µg/mL (≈ 0.141 µM).
